According to patent US10730868B2, “Bicyclic heteroaryl substituted compounds” (BRISTOL-MYERS SQUIBB COMPANY, priority 2016, dated 2020):

What follows are molecules tested against PAR4 (Homo sapiens (Human), UniProt Q96RI0) (assay: PAR4 FLIPR assay (antagonism of agonist-peptide-induced calcium mobilization)). Conditions: H-Ala-Phe(4-F)-Pro-Gly-Trp-Leu-Val-Lys-Asn-Gly-NH2-induced intracellular calcium mobilization, PAR4-expressing HEK293 cells; read-out: PAR4 FLTPR assay (IC50).
Type: cell-based
Excerpt: The Fluorometric Imaging Plate Reader (FLIPR) assay is an exemplary in vitro assay for measuring the activity of the PAR4 antagonists of the present invention. In this assay, intracellular calcium mobilization is induced in PAR4 expressing cells by a PAR4 agonist and calcium mobilization is monitored.
HEK293 cells stably expressing PAR4 were generated by a standard method of transfection of human PAR4 (F2R23) cDNA expression vector and selected based on PAR4 protein expression or mRNA expression. […] These cells also express endogenous PAR1 and can elicit calcium signal upon stimulation with PAR1 agonist peptide. Therefore, the same cells were also used to determine selectivity against PAR1 and agonist activity for both receptors. Cells from HEK293 PAR4 Clone 1.2A (BMS Arctic ID 383940) were propagated and used for calcium mobilization studies.
FLIPR-based calcium mobilization assay in HEK293 cells was used to measure PAR4 antagonism agonism, and selectivity against PAR1. The activity of the PAR4 antagonists of the present invention were tested in PAR4 expressing cells by monitoring H-Ala-Phe(4-F)-[…]NH2-induced intracellular calcium mobilization. Counter screens for agonist activity and PAR1 antagonist activity were also performed. Briefly, PAR/PAR4-expressing HEK293 cells were grown in DMEM (Life Technology, Grand Island, N.Y.) containing 10% heat-inactivated FBS, 1% Penicillin-Streptomycin, 10 μg/mL blasticidin, and 100 μg/mL Zeocin at 37° C. with 5% CO2. Cells were plated overnight prior to the experiment in a black 384-well Purecoat Amine clear bottom plate (Becton Dickinson Biosciences, San Jose, Calif.) at 10,000 cells/well in 30 μL growth medium and incubated in a humidified chamber at 37° C. with 5% CO2 overnight. Prior to compound addition, the cell medium was replaced with 40 μL of 1× calcium and magnesium-containing Hank's Balanced Saline Solution (HBSS) (with 20 mM HEPES) and 1:1000 diluted fluorescent calcium indicator (Codex Biosolutions, Gaithersburg, Md.). After a 30 minute incubation period at 37° C. and a further 30 minute incubation and equilibration period at room temperature, 20 μL test compound (diluted in 1×HBSS buffer) was added at various concentrations at 0.17% dimethyl sulfoxide (DMSO) final concentration. Changes in fluorescence intensity were measured using a Functional Drug Screening System (FDSS, Hamamatsu, Japan) to determine agonist activities. The cells were then incubated for 30 minutes at room temperature followed by addition of 20 μL of agonist peptide for antagonist activity measurement. […] Compound potency was derived from 11-point concentration-response curves.

Chain of PAR4 (Q96RI0 18-385): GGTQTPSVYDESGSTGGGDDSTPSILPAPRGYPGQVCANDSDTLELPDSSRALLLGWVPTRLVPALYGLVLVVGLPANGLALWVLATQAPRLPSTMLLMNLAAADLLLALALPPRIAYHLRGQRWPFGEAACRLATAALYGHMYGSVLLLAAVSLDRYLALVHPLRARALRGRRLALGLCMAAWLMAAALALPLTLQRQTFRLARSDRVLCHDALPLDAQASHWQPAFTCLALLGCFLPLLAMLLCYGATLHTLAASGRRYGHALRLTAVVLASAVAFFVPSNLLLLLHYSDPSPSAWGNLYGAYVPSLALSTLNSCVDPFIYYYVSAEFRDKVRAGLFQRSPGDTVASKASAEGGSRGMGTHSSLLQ

Question: With COc1cnc2c(-c3nc4cc(F)c(O[C@H]5CC(F)(F)CC[C@H]5OC(=O)Nc5cnc(OCCO)nc5)cc4s3)cc(C)cc2n1 [Example 1] as the molecule, how does the IC50 read?
Answer: 1.6 nM

Question: With COc1cnc2c(-c3nc4cc(F)c(O[C@H]5CC(F)(F)CC[C@H]5OC(=O)Nc5ccc(C(=O)NCC(C)(C)O)nc5)cc4s3)cc(C)cc2n1 [Example 2] as the molecule, how does the IC50 read?
Answer: 0.46 nM

Question: Which IC50 does the source give for COc1cnc2c(-c3nc4cc(F)c(O[C@H]5CC(F)(F)CC[C@H]5OC(=O)Nc5cnc(CCO)nc5)cc4s3)cc(C)cc2n1 [Example 3] here?
Answer: 0.82 nM

Question: With COc1cnc2c(-c3nc4cc(F)c(O[C@H]5CC(F)(F)CC[C@H]5OC(=O)Nc5cnc(C)nc5)cc4s3)cc(C)cc2n1 [Example 4] as the molecule, how does the IC50 read?
Answer: 1.9 nM

Question: Which IC50 does the source give for COc1cnc2c(-c3nc4cc(F)c(O[C@H]5CC(F)(F)CC[C@H]5OC(=O)Nc5ccc(CCO)nc5)cc4s3)cc(C)cc2n1 [Example 5] here?
Answer: 6.8 nM

Question: Which IC50 does the source give for COc1cnc2c(-c3nc4cc(F)c(O[C@H]5CC(F)(F)CC[C@H]5OC(=O)Nc5ccc(CO)nc5)cc4s3)cc(C)cc2n1 [Example 6] here?
Answer: 0.76 nM

Question: COc1cnc2c(-c3nc4cc(F)c(O[C@H]5CC(F)(F)CC[C@H]5OC(=O)Nc5ccnc(OCCC(C)(C)O)c5)cc4s3)cc(C)cc2n1 [Example 8] was tested. Which IC50 did it give?
Answer: 1.2 nM

Question: With COc1cnc2c(-c3nc4cc(F)c(O[C@H]5CC(F)(F)CC[C@H]5OC(=O)Nc5ccnnc5)cc4s3)cc(C)cc2n1 [Example 9] as the molecule, how does the IC50 read?
Answer: 12 nM

Question: With COc1cnc2c(-c3nc4cc(F)c(O[C@H]5CC(F)(F)CC[C@H]5OC(=O)Nc5cnc(CO)nc5)cc4s3)cc(C)cc2n1 [Example 10] as the molecule, how does the IC50 read?
Answer: 23 nM

Question: How did the IC50 turn out when COc1cnc2c(-c3nc4cc(F)c(O[C@@H]5CC(F)(F)CC[C@@H]5OC(=O)Nc5cnc(C)nc5)cc4s3)cc(C)cc2n1 [Example 13] was run?
Answer: 110 nM

Question: Which IC50 does the source give for COc1cnc2c(-c3nc4cc(F)c(O[C@H]5CC(F)(F)CC[C@H]5OC(=O)Nc5cnc(OCCO)nc5)cc4s3)cc(C)cc2c1 [Example 15, (1R, 2S)-4,4-difluoro-2-((5-fluoro-2-(3-methoxy-6-methylquinolin-8-yl)benzo[d]thiazol-6-yl)oxy)cyclohexyl (2-(2-hydroxyethoxy)pyrimidin-5-yl)carbamate] here?
Answer: 0.77 nM

Question: For COc1cnc2c(-c3nc4cc(F)c(O[C@H]5CC(F)(F)CC[C@H]5OC(=O)Nc5cnc(OCCO)nc5)cc4s3)cc(Cl)cc2c1 [Example 16, (1R,2S)-2-((2-(6-chloro-3-methoxyquinolin-8-vi)-5-fluorobenzo[d]thiazol-6-yl)oxy)-4,4-difluorocyclohexyl (2-(2-hydroxyethoxy)pyrimidin-5-yl)carbamate], which IC50 is on record?
Answer: 1.3 nM

Question: COc1cnc2c(-c3nc4cc(F)c(O[C@H]5CC(F)(F)CC[C@H]5OC(=O)Nc5cnc(C)nc5)cc4s3)cc(Cl)cc2c1 [Example 17, (1R,2S)-2-((2-(6-chloro-3-methoxyquinolin-8-yl)-5-fluorobenzo[d]thiazol-6-yl)oxy)-4,4-difluorocyclohexyl (2-methylpyrimidin-5-yl)carbamate] was tested. Which IC50 did it give?
Answer: 4.1 nM

Question: Which IC50 does the source give for CCOc1cnc2c(-c3nc4cc(F)c(O[C@H]5CC(F)(F)CC[C@H]5OC(=O)Nc5cnc(C)nc5)cc4s3)cc(C)cc2n1 [Example 18, (1R,2S)-2-((2-(2-ethoxy-7-methylquinoxalin-5-yl)-5-fluorobenzo[d]thiazol-6-yl)oxy)-4,4-difluorocyclohexyl (2-methylpyrimidin-5-yl)carbamate] here?
Answer: 3.9 nM

Question: COc1cnc2c(-c3nc4cc(F)c(O[C@H]5CC(F)(F)CC[C@H]5OC(=O)Nc5cnc(OCCOP(=O)(O)O)nc5)cc4s3)cc(C)cc2n1 [Example 19, (1R,2S)-4,4-difluoro-2-((5-fluoro-2-(2-methoxy-7-methylquinoxalin-5-yl)benzo[d]thiazol-6-yl)oxy)cyclohexyl (2-(2-(phosphonooxy)ethoxy)pyrimidin-5-yl)carbamate] was tested. Which IC50 did it give?
Answer: 1 nM

Question: How did the IC50 turn out when COc1ccc(NC(=O)O[C@H]2CCC[C@H]2Oc2cc3sc(-c4cc(C)cc5nc(OC)cnc45)nc3cc2F)cn1 [Example 23] was run?
Answer: 30 nM

Question: COc1ccc(NC(=O)O[C@@H]2CCC[C@@H]2Oc2cc3sc(-c4cc(C)cc5nc(OC)cnc45)nc3cc2F)nc1 [Example 24] was tested. Which IC50 did it give?
Answer: 7.8 nM

Question: Which IC50 does the source give for COc1ccc(NC(=O)O[C@@H]2CCC[C@@H]2Oc2cc3sc(-c4cc(C)cc5nc(OC)cnc45)nc3cc2F)cc1 [Example 25] here?
Answer: 1.3 nM

Question: Which IC50 does the source give for COc1cnc2c(-c3nc4cc(F)c(O[C@H]5CCC[C@H]5OC(=O)Nc5ncc(C)cn5)cc4s3)cc(C)cc2n1 [Example 26] here?
Answer: 83 nM

Question: COc1cnc2c(-c3nc4cc(F)c(O[C@@H]5CCC[C@@H]5OC(=O)Nc5cnc(C)nc5)cc4s3)cc(C)cc2n1 [Example 27] was tested. Which IC50 did it give?
Answer: 58 nM

Question: For COc1cnc2c(-c3nc4cc(F)c(O[C@H]5CCC[C@H]5OC(=O)NC(C)C)cc4s3)cc(C)cc2n1 [Example 29], which IC50 is on record?
Answer: 12 nM

Question: Which IC50 does the source give for COc1cnc2c(-c3nc4cc(F)c(O[C@H]5CCC[C@H]5OC(=O)Nc5ccnc(C)c5)cc4s3)cc(C)cc2n1 [Example 30] here?
Answer: 2.6 nM

Question: With COc1cnc2c(-c3nc4cc(F)c(O[C@H]5CCC[C@H]5OC(=O)Nc5ccc(CO)nc5)cc4s3)cc(C)cc2n1 [Example 31] as the molecule, how does the IC50 read?
Answer: 1.1 nM

Question: COc1cnc2c(-c3nc4cc(F)c(O[C@H]5CCC[C@H]5OC(=O)Nc5ccc(C)nc5)cc4s3)cc(C)cc2n1 [Example 32] was tested. Which IC50 did it give?
Answer: 2.6 nM

Question: COc1cnc2c(-c3nc4cc(F)c(O[C@H]5CCC[C@H]5OC(=O)Nc5cncc(C#N)c5)cc4s3)cc(C)cc2n1 [Example 34] was tested. Which IC50 did it give?
Answer: 1.6 nM

Question: For COc1cnc2c(-c3nc4cc(F)c(O[C@H]5CCC[C@H]5OC(=O)Nc5ccc(C#N)nc5)cc4s3)cc(C)cc2n1 [Example 36], which IC50 is on record?
Answer: 2.4 nM

Question: For COc1cnc2c(-c3nc4cc(F)c(O[C@H]5CCC[C@H]5OC(=O)Nc5cnc(C)nc5)cc4s3)cc(C)cc2n1 [Example 37], which IC50 is on record?
Answer: 4 nM

Question: How did the IC50 turn out when COc1cnc2c(-c3nc4cc(F)c(O[C@H]5CCC[C@H]5OC(N)=O)cc4s3)cc(C)cc2n1 [Example 39] was run?
Answer: 400 nM

Question: With COC(=O)c1ccc(NC(=O)O[C@@H]2CCC[C@@H]2Oc2cc3sc(-c4cc(C)cc5nc(OC)cnc45)nc3cc2F)cn1 [Example 47, methyl 5-(((((1R,2S)-2-((5-fluoro-2-(2-methoxy-7-methylquinoxalin-5-yl)benzo[d]thiazol-6-yl)oxy)cyclopentyl)oxy)carbonyl)amino)picolinate] as the molecule, how does the IC50 read?
Answer: 4.2 nM

Question: For CNC(=O)c1ccc(NC(=O)O[C@@H]2CCC[C@@H]2Oc2cc3sc(-c4cc(C)cc5nc(OC)cnc45)nc3cc2F)cn1 [Example 48, (1R,2S)-2-((5-fluoro-2-(2-methoxy-7-methylquinoxalin-5-yl)benzo[d]thiazol-6-yl)oxy)cyclopentyl (6-(methylcarbamoyl)pyridin-3-yl)carbamate], which IC50 is on record?
Answer: 2.4 nM

Question: With COc1cnc2c(-c3nc4cc(F)c(O[C@H]5CCC[C@H]5OC(=O)Nc5ccc(C(N)=O)nc5)cc4s3)cc(C)cc2n1 [Example 49, (1R,2S)-2-((5-fluoro-2-(2-methoxy-7-methylquinoxalin-5-yl)benzo[d]thiazol-6-yl)oxy)cyclopentyl (6-carbamoylpyridin-3-yl)carbamate] as the molecule, how does the IC50 read?
Answer: 3.6 nM

Question: With COc1cnc2c(-c3nc4cc(F)c(O[C@H]5CCC[C@H]5OC(=O)Nc5ccc(C(=O)N(C)C)nc5)cc4s3)cc(C)cc2n1 [Example 50, (1R,2S)-2-((5-fluoro-2-(2-methoxy-7-methylquinoxalin-5-yl)benzo[d]thiazol-6-yl)oxy)cyclopentyl (6-(dimethylcarbamoyl)pyridin-3-yl)carbamate] as the molecule, how does the IC50 read?
Answer: 3.4 nM

Question: How did the IC50 turn out when COC(=O)c1ncc(NC(=O)O[C@@H]2CCC[C@@H]2Oc2cc3sc(-c4cc(C)cc5nc(OC)cnc45)nc3cc2F)cn1 [Example 51, methyl 5-(((((1R,2S)-2-((5-fluoro-2-(2-methoxy-7-methylquinoxalin-5-yl)benzo[d]thiazol-6-yl)oxy)cyclopentyl)oxy)carbonyl)amino)pyrimidine-2-carboxylate] was run?
Answer: 6.8 nM

Question: How did the IC50 turn out when COc1cnc2c(-c3nc4cc(F)c(O[C@H]5CCC[C@H]5OC(=O)Nc5cnc(C(N)=O)nc5)cc4s3)cc(C)cc2n1 [Example 52, (1R,2S)-2-((5-fluoro-2-(2-methoxy-7-methylquinoxalin-5-yl)benzo[d]thiazol-6-yl)oxy)cyclopentyl (2-carbamoylpyrimidin-5-yl)carbamate] was run?
Answer: 2.5 nM

Same assay, conditions: H-Ala-Phe(4-F)-[…]NH2-induced intracellular calcium mobilization, PAR4-expressing HEK293 cells; read-out: PAR4 FLTPR assay (IC50)

Question: For COc1ccc(NC(=O)O[C@@H]2CCC[C@@H]2Oc2cc3sc(-c4cc(C)cc5nc(OC)cnc45)nc3cc2F)cn1 [Example 22, (1R,2S)-2-((5-fluoro-2-(2-methoxy-7-methylquinoxalin-5-yl)benzo[d]thiazol-6-yl)oxy)cyclopentyl (6-methoxy pyridin-3-yl)carbamate], which IC50 is on record?
Answer: 2.4 nM
